From ChEMBL document CHEMBL1201862, “PubChem BioAssay data set” (2004) come the findings set out here.

Common to all, as to experiment: inhibition of tumour cell growth, NCI panel, 48 h
The test system of assay [1] is NCI-H460.
Assay [2] relates to HCT-15.
The subject of assay [3] is SK-MEL-2.
Assay [4] deals with CCRF-CEM.
Assay [5] has as its system HL-60.
The test system of assay [6] is MCF7.
In assay [7] the test system is NCI-H226.
Assay [8] relates to MDA-MB-231.
Assay [9] has as its system MOLT-4.
Assay [10] relates to UACC-257.
Assay [11] has as its system NCI-H522.
Assay [12] relates to OVCAR-3.
Assay [13] has as its system SNB-19.
In assay [14] the test system is MDA-N.
Assay [15] relates to IGROV-1.
Assay [16] deals with SK-MEL-5.
For assay [17], the system named is KM12.
In assay [18] the test system is M14.
Assay [19] deals with SNB-75.
The test system of assay [20] is RXF 393.

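Method: 48-hour compound exposure of cells in 96-well plates, five concentrations, linear interpolation of endpoints. At the GI50, growth is halved.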 The source made the active and inactive calls. Rule as the data show it: active = GI50 up to about 1.1 µM and inactive = higher.

In the case of `COc1nc(NC2OC(COC(C)=O)C(OC(C)=O)C(OC(C)=O)C2OC(C)=O)c(/N=C/C=N/c2c(NC3OC(COC(C)=O)C(OC(C)=O)C(OC(C)=O)C3OC(C)=O)nc(OC)n(C)c2=O)c(=O)n1C` (stereo not given), the GI50 in assay [1] was > 100 µM (inactive); in assay [2], above 100 µM; in [3], > 100 µM (inactive); in [4], > 100 µM (inactive); in assay [5], > 100 µM (inactive); in assay [6], > 100 µM (inactive). Besides, the GI50 in assay [7] was 97.5 µM (inactive); in [8] it was > 100 µM (inactive); in assay [9], > 100 µM (inactive); in assay [10], > 100 µM (inactive); in assay [11] it was > 100 µM (inactive); in assay [12], > 100 µM (inactive). Also, the GI50 was 48.4 µM (inactive) in assay [13]; > 100 µM (inactive) in assay [14]; > 100 µM (inactive) in assay [15]; > 100 µM (inactive) in [16]; > 100 µM (inactive) in [17]; > 100 µM (inactive) in [18]. Further, the GI50 in assay [19] was 17 µM (inactive); in assay [20], 30.5 µM (inactive).
Take `CSC(CC(=O)O)C(=O)O` (stereo not given): the GI50 was > 100 µM (inactive) in [1]; above 100 µM in assay [2]; > 100 µM (inactive) in assay [3]; > 100 µM (inactive) in assay [4]; > 100 µM (inactive) in assay [5]; > 100 µM (inactive) in [6]. For the same compound, the GI50 in assay [7], in [8], in assay [9], in [10], in [11] and in assay [12] was > 100 µM (inactive) throughout. Besides, the GI50 in assay [13], in assay [14], in assay [15], in assay [16], in [17] and in assay [18] was > 100 µM (inactive) in each case. Also, the GI50 in [19] and in assay [20] was > 100 µM (inactive) in each case.
`O=[N+]([O-])c1cc2c(c3nonc13)OCCCCO2`: the GI50 was 3.76 µM (inactive) in [1]; 2.94 µM in assay [2]; 13.8 µM (inactive) in assay [3]; 1.5 µM (inactive) in [4]; 2.55 µM (inactive) in assay [5]; 7.76 µM (inactive) in assay [6]. The GI50 in assay [7] was 14.4 µM (inactive); in assay [8], 3.31 µM (inactive); in assay [9], 3.99 µM (inactive); in assay [10] it was 15.5 µM (inactive); in assay [11] it was 4.39 µM (inactive); in assay [12], 2.19 µM (inactive). For the same compound, the GI50 was 13.4 µM (inactive) in [13]; 4.13 µM (inactive) in assay [14]; 9.16 µM (inactive) in assay [15]; 8.61 µM (inactive) in assay [16]; 4.37 µM (inactive) in [17]; 5 µM (inactive) in [18]. Also, the GI50 in assay [19] is 10.6 µM (inactive); in assay [20], 7.74 µM (inactive).
Take `COC(=O)C1CC23CCCN4CCC5(c6ccccc6N(C=O)C15CC2)C43` (stereo not given): the GI50 in [1] was > 100 µM (inactive); in assay [2] it was above 100 µM; in [3], > 100 µM (inactive); in assay [4] it was > 100 µM (inactive); in [5], > 100 µM (inactive); in [6] it was > 100 µM (inactive). The GI50 in assay [7], in assay [8], in assay [9], in assay [10], in assay [11] and in assay [12] was > 100 µM (inactive) each time. The GI50 in assay [13], in assay [14], in [15], in assay [16], in [17] and in assay [18] was > 100 µM (inactive) throughout. Moreover, the GI50 in assay [19] and in [20] was > 100 µM (inactive) throughout.
For the compound `C/C(Sc1ccccc1)=C1/CCCN(Cc2ccccc2)C1`, the GI50 was 21.8 µM (inactive) in [1]; 14.2 µM in assay [2]; 17.2 µM (inactive) in [3]; 20.2 µM (inactive) in [4]; 13.7 µM (inactive) in [5]; 20.2 µM (inactive) in [6]. Besides, the GI50 in [7] was 12.9 µM (inactive); in assay [8], 24.1 µM (inactive); in [9], 16.7 µM (inactive); in [10], 18.7 µM (inactive); in [11], 15.8 µM (inactive); in [12] it was 16.6 µM (inactive). The GI50 in assay [13] is 36.9 µM (inactive); in assay [14], 22.6 µM (inactive); in [15] it was 36.3 µM (inactive); in [16] it was 14.3 µM (inactive); in assay [17], 20.1 µM (inactive); in [18], 11.9 µM (inactive). Also, the GI50 in [19] was 23.6 µM (inactive); in assay [20] it was 16.6 µM (inactive).
For the compound `CCOC(=O)CN1C(=O)c2c(c(C)n(-c3ccccc3)c2C)C1=O`, the GI50 in [1] is > 100 µM (inactive); in assay [2], above 100 µM; in assay [3] it was > 100 µM (inactive); in assay [4], > 100 µM (inactive); in assay [5], > 100 µM (inactive); in assay [6], > 100 µM (inactive). Moreover, the GI50 in assay [7], in [8], in [9], in assay [10], in [11] and in [12] was > 100 µM (inactive) throughout. Further, the GI50 in assay [13], in assay [14], in assay [15], in assay [16], in [17] and in assay [18] was > 100 µM (inactive) each time. For the same compound, the GI50 is 82.8 µM (inactive) in assay [19] and 26 µM (inactive) in [20].
With `S=C=NCc1ccccc1` [BENZYL ISOTHIOCYANATE], the GI50 in assay [1] is 6.27 µM (inactive); in assay [2], 3.36 µM; in assay [3], 6.35 µM (inactive); in assay [4], 0.454 µM (active); in assay [5], 1.86 µM (inactive); in [6], 3.23 µM (inactive). The GI50 in assay [7] was 10.1 µM (inactive); in [8], 1.8 µM (inactive); in assay [9] it was 1.31 µM (inactive); in assay [10] it was 3.15 µM (inactive); in assay [11], 1.22 µM (inactive); in [12], 2.75 µM (inactive). Moreover, the GI50 in assay [13] is 4.71 µM (inactive); in assay [14] it was 1.18 µM (inactive); in assay [15] it was 2.51 µM (inactive); in assay [16] it was 2.81 µM (inactive); in assay [17] it was 0.895 µM (active); in assay [18], 1.67 µM (inactive). The GI50 was 4.27 µM (inactive) in assay [19] and 1.62 µM (inactive) in assay [20].
As to `O=P1(NCCCl)OCCCN1CCCl` (stereo not given) [IFOSFAMIDE], the GI50 was 394 µM (inactive) in [1]; 376 µM in assay [2]; 382 µM (inactive) in [3]; 207 µM (inactive) in [4]; 320 µM (inactive) in assay [5]; 361 µM (inactive) in assay [6]. In addition, the GI50 in assay [7] was 393 µM (inactive); in assay [8] it was > 500 µM (inactive); in assay [9] it was 262 µM (inactive); in [10], 345 µM (inactive); in assay [11] it was 300 µM (inactive); in assay [12] it was 365 µM (inactive). Also, the GI50 in assay [13] is 361 µM (inactive); in assay [14], > 500 µM (inactive); in assay [15] it was 433 µM (inactive); in [16] it was 398 µM (inactive); in assay [17] it was 406 µM (inactive); in [18], > 467 µM (inactive). For the same compound, the GI50 was 334 µM (inactive) in assay [19] and 376 µM (inactive) in assay [20].
